Experiment: Stability test in human serum (15 h incubation, TLC control of supernatant)
Assay type: in vitro ADME
Conditions: controlled by TLC
Procedure: The compound of Example 4 (7.5-10.5 MBq) was prepared according to the previously described procedure. The resulting organic solution was evaporated until the final volume was about 50 μL. The complex was purified by silica gel chromatography using DCM/MeOH (99/1) as mobile phase. Activity was counted for each 500 μL aliquots and fractions of interest were concentrated under nitrogen flux. One ml of human serum was then added. The solution was gently stirred and divided into two aliquots incubated 15 h. respectively at 4° C. and 37° C. Then, serum proteins were precipitated by adding 750 μl of organic solvents mixture (ACN/DCM 100/1). Supernatant was separated by centrifugation at 4000 rpm and controlled by TLC.

(^211At)(1-benzyl-3-(4-nitrophenyl)imidazolidene)(cyclooctadiene) rhodium(+I) [Example 4]
degradation in human serum (incubated 15 h, result sentence prints 30° C. (method: 37° C.)): No degradation
degradation in human serum (incubated 15 h at 4° C.): No degradation
